Among the data in US5599925A, “Penam derivatives” (Otsuka Kagaku Kabushiki Kaisha, priority 1991, dated 1997) are MIC values, retold here.

What all share (assay): in vitro antibacterial potency test, doubling dilution agar plate method
Common to all, as to format: cell-based

Assay [1] relates to Escherichia coli NIHJ-JC2. Conditions: NIHJJC2, 20 hours at 37° C., inoculum 0.005 ml of ca. 10^8 /ml, read-out: minimal inhibitory concentration (MIC). As to the method:
(§1) Using compound (1a-i), an in vitro antibacterial potency test was performed by the doubling dilution agar plate method. Each test strain was cultured in a sensitivity assay bouillon for 20 hours and 0.005 ml of the culture (viable cell count: ca. 10^8 /ml) was inoculated on a sensitivity assay agar medium containing a varying concentration of the antibacterial compound.
(§2) After 20 hours of incubation at 37° C., the minimal inhibitory concentration (MIC) was determined and expressed in units of μg/ml.

Assay [2] has as its system Proteus vulgaris. Conditions: 20 hours at 37° C., inoculum 0.005 ml of ca. 10^8 /ml, read-out: minimal inhibitory concentration (MIC). As to the method: as §1, §2
The test system of assay [3] is Pseudomonas aeruginosa. The conditions noted are these: 20 hours at 37° C., inoculum 0.005 ml of ca. 10^8 /ml, read-out: minimal inhibitory concentration (MIC). Here is the method: as §1, §2
The subject of assay [4] is Serratia marcescens. The conditions noted are these: 20 hours at 37° C., inoculum 0.005 ml of ca. 10^8 /ml, read-out: minimal inhibitory concentration (MIC). Here is the method: as §1, §2
Assay [5] has as its system Staphylococcus aureus 209P. Conditions: 20 hours at 37° C., inoculum 0.005 ml of ca. 10^8 /ml, read-out: minimal inhibitory concentration (MIC). Here is the method: as §1, §2
Assay [6] concerns Staphylococcus aureus, methicillin-resistant. The conditions noted are these: 20 hours at 37° C., inoculum 0.005 ml of ca. 10^8 /ml, read-out: minimal inhibitory concentration (MIC). As to the method: as §1, §2

Values after ≈ are worked out from the molar mass of the structure shown.

Consider `COC(=O)CCSCC1SC2C(NC(=O)Cc3ccccc3)C(=O)N2C1C(=O)O` (stereo not drawn) [compound (1a-i)], for which the MIC in assay [1] came out at 12.5 µg/mL (≈ 28.5 µM); in assay [2], 0.39 µg/mL (≈ 0.889 µM); in assay [3] it was 100 µg/mL (≈ 228 µM); in assay [4] it was 12.5 µg/mL (≈ 28.5 µM); in assay [5], 0.1 µg/mL (≈ 0.228 µM); in assay [6] it was 100 µg/mL (≈ 228 µM).
